# In patent US6368831B1, “Treatment of hyperproliferative disorders” (Childrens Hospital Los Angeles, priority 1998, dated 2002):
# Legend:
# CHLA-90 cells = assay: Morphological assessment of apoptosis and necrosis (Hoechst 33342 / propidium iodide), CHLA-90; assay type: cell-based, human
# Method: Methods. To determine the manner in which 4-HPR or HPR+safingol induced cell death in neuroblastoma cells, morphological evidence of apoptosis and/or necrosis was assessed in CHLA-90 cells in the presence or absence of a specific as inhibitor of apoptosis, the neural cell-penetrant, pan-caspase enzyme inhibitor, BOC-d-fink (Enzyme Systems Products, Livermore, Calif.). […] CHLA-90 cells were plated in duplicate in whole medium in Lab Tek chamber slides (Nunc, Naperville, Ill.), allowed to attach for 24 hours, and then treated in the presence or absence of BOC-d-fink (40 μM) for one hour prior to treatment with HPR (10 μM). Control cells were treated with vehicle solvents of 0. 1% ethanol (4-HPR) and/or 0.2% DMSO (BOC-d-fink). Morphological features of apoptosis (DNA condensation and/or apoptotic bodies) were visualized in undetached cells at +24 or +48 hours using blue nuclear fluorescence induced by the supravital DNA stain Hoechst 33342 (10 μg/ml for 30 mins at 37° C.), while necrotic cells and advanced apoptotic cells were recognized by red fluorescent staining with propidium iodide (0.5 μM/ml). Red fluorescently-staining cells with condensed nuclear remnants were scored as apoptotic cells. […] Mutiple random fields of cells (of ˜100-500 cells each) were counted and photographed for viable cells, apoptotic cells, and necrotic cells. […]
# [1] = system: SMS-LHN neuroblastoma cell line; assay: Ceramide assay, SMS-LHN; assay type: cell-based, human; conditions: SMS-LHN (drug sensitive); 10 μM fenretinide; 20% O2
# Method: The ceramide assay is carried out as follows. 500,000 neuroblastoma cells/well are replicate plated in six-well tissue culture plates and allowed to attach overnight. Tritiated (3H)-palmitic acid (a lipid precursor) is added to 1 microcure/cc and fenretinide added to a final concentration of 10 uM. Control cells receive tritiated label but no drug. At the indicated time, cells are harvested from triplicate wells, washed, and lipids extracted with methanol, acetic acid, water, and chloroform. The organic layer (containing the tritium label incorporated into lipids) is isolated and dried down by a nitrogen stream. The lipid sample is dissolved in chloroform: methanol and 10% of each sample assayed to estimate the total tritium in the lipid sample. The lipids in sample fractions, together with unlabeled ceramide standards, are then separated by thin layer chromatography and the plates developed by iodine vapor. The region of the plate corresponding to the ceramide standard is scraped and the tritium of the co-migrating sample ceramide is measured. Total sample ceramide is then expressed as percent tritium label in ceramide versus tritium in total lipid. […]
structure (smiles),measurement,setting,value
"CC1=C(/C=C/C(C)=C/C=C/C(C)=C/C(=O)Nc2ccc(O)cc2)C(C)(C)CCC1 [HPR, all-trans-N-(4-hydroxyphenyl)retinamide]",morphological nuclear changes indicative of apoptosis,"CHLA-90 cells; HPR 10 μM alone, relative to controls (P=0.006)",induced significant apoptosis
same,morphological evidence of necrosis,"CHLA-90 cells; HPR 10 μM, relative to controls (P=0.002)",significant morphological evidence of necrosis
same,ceramide generation,[1],generate ceramide
